This is an account of results in patent US20260217767A1, “NOVEL A4B7 THIOETHER PEPTIDE DIMER ANTAGONISTS” (Protagonist Therapeutics, Inc., priority 2014, published 2026).

In data set [1] the target is T1, rh integrin α4β7 (Homo sapiens, UniProt P13612+P26010).
T1 construct: purchased R&D Systems 5397-A30
T1 sequence (P13612 34-977 limits assumed): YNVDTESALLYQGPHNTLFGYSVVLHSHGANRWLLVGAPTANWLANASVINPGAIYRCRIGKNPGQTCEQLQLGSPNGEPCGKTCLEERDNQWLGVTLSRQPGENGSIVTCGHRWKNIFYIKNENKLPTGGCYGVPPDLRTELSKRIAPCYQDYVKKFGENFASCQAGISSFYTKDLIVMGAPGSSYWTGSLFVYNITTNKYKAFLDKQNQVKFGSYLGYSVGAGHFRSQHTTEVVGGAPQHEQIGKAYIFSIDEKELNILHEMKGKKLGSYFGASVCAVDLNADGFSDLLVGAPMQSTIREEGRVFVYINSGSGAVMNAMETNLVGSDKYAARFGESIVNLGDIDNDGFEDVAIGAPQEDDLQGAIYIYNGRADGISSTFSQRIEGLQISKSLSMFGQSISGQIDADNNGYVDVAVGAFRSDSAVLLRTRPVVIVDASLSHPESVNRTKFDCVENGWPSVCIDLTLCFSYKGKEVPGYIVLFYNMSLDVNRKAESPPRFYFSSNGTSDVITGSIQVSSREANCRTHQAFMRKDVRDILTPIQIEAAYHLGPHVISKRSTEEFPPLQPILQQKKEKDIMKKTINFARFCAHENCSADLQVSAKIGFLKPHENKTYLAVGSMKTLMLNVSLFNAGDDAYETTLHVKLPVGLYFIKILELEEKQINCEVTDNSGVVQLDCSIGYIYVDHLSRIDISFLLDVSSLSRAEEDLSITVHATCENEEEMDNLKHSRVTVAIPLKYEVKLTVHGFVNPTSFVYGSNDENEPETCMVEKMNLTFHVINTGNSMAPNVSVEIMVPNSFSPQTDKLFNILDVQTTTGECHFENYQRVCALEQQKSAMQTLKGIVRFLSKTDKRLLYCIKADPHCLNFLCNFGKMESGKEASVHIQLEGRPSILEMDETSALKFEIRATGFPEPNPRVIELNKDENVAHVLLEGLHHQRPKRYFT
T1 sequence (P26010 20-723 limits assumed): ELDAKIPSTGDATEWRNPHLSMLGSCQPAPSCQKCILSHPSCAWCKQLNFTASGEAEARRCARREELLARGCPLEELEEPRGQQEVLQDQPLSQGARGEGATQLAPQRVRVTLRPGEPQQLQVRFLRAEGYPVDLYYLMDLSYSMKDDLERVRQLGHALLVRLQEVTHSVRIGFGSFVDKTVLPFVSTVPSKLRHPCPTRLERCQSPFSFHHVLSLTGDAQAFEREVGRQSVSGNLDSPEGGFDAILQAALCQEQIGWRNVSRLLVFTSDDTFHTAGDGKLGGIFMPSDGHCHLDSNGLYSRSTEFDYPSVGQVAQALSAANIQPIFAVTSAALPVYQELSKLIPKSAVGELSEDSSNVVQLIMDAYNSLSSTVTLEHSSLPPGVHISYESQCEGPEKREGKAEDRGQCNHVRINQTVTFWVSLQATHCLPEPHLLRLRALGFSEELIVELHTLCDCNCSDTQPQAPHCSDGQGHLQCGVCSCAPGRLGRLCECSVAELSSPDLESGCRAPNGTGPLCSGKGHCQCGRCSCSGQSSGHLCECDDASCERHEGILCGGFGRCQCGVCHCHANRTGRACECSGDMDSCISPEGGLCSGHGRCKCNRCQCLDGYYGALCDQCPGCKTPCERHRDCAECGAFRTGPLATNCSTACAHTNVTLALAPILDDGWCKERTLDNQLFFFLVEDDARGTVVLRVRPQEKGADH
The experiment in a line: α4β7-MAdCAM Competition ELISA. It is filed as binding. The note with it: thioether monomer peptides, Table 6; read-out: ELISA A4B7. The protocol:
α4β7-MAdCAM Competition ELISA A nickel coated plate (Pierce #15442) was coated with rh integrin α4β[…] Systems #5397-A30) at 800 ng/well and incubated at room temperature with shaking for 1 hr. The solution was then removed by shaking and blocked with assay buffer (50 mM Tris-HCl pH7.6, 150 mM NaCl, 1 mM MnCl2 or MgCl2, 0.05% Tween-20 and 0.5% BSA) at 250 ul/well. The plate was then incubated at room temperature for 1 hr. Each well was washed 3 times with wash buffer (50 mM Tris-HCl pH7.6, 100 mM NaCl, 1 mM MnCl2 or MgCl2, 0.05% Tween-20). To each well was added 25 ul of a serial dilution (3-fold dilutions in assay buffer) of peptides starting at 20 μM. 25 ul of recombinant human MAdCAM-1 (R&D Systems #6056-MC) was then added to each well at a fixed concentration 20 nM. The final starting peptide concentration was 10 μM, and the final MAdCAM-1 concentration was 10 nM. The plates were then incubated at room temperature for 1 hr to reach binding equilibrium. The wells were then washed three times with wash buffer. 50 ul of mouse anti-human IgG1-HRP (Invitrogen #A10648) diluted in 1:2000 in assay buffer was then added to each well. The wells were incubated at room temperature for 45 min with shaking. The wells were then washed 3 times with wash buffer. 100 ul of TMB were then added to each well and closely observe during development time. The reaction was stopped with 2N H2SO4 and absorbance was read at 450 nm.

Data set [2] in a line: Simulated Intestinal Fluid (SIF) Stability Assay. The note with it: pig, simulated intestinal fluid (SIF) with 1% porcine pancreatin, pH 6.5, porcine pancreatin, 37° C.; monomers, Table 6. It is filed as in vitro ADME. Put shortly: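 Peptide at 22 μM final was incubated at 37° C in blank FaSSIF pH 6.5 with 1% porcine pancreatin. Timed samples were quenched in acetonitrile/methanol/formic acid with internal standard and analysed by LC-MS/MS. Half-lives came from first-order exponential fits of percent remaining.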

Broadly, the half-life is how long it takes for the measured level to halve. The low end stands for rapid decline, the high end for slow decline.

Where a SMILES comes first, the peptide text is derived from it. Where only a bound is given, the exact number is not on record here.

Take `CC(C)C[C@@H]1NC(=O)[C@H]([C@@H](C)O)NC(=O)[C@H](CC(=O)O)NC(=O)[C@H](CO)NC(=O)[C@H](CCCNC(=N)N)N(C)C(=O)c2ccccc2CSC(C)(C)[C@@H](C(=O)N[C@@H](Cc2ccc3ccccc3c2)C(=O)N[C@@H](CCC(=O)O)CC(=O)N[C@H](CCCCN)C(N)=O)NC1=O` [compound 70]: the IC50 in data set [1] is less than 25 nM. This molecule yielded a half-life at 22 μM in data set [2] of more than 3 h.
For `CC(C)C[C@@H]1NC(=O)[C@H]([C@@H](C)O)NC(=O)[C@H](CC(=O)O)NC(=O)[C@H](CO)NC(=O)[C@H](CCCNC(=N)N)N(C)C(=O)c2ccccc2CSC(C)(C)[C@@H](C(=O)N[C@H](Cc2ccccc2)C(=O)N[C@@H](Cc2ccc3ccccc3c2)C(=O)N[C@H](CCCCN)C(N)=O)NC1=O` [compound 71] (HELM PEPTIDE1{[meR].S.D.T.L.[Pen].[dF].[O=C([C@H](Cc1ccc2ccccc2c1)N[*:1])[*:2]].[dK].[am]}|CHEM1{[O=C(c1ccccc1C[*:2])[*:1]]}$PEPTIDE1,CHEM1,1:R1-1:R1|PEPTIDE1,CHEM1,6:R3-1:R2$$$V2.0) the same measures were 25 to 100 nM and more than 3 h.
For the molecule `CC(C)C[C@@H]1NC(=O)[C@H]([C@@H](C)O)NC(=O)[C@H](CC(=O)O)NC(=O)[C@H](CO)NC(=O)[C@H](CCCNC(=N)N)N(C)C(=O)c2ccccc2CSC(C)(C)[C@@H](C(=O)N[C@H](Cc2ccccc2)C(=O)N[C@@H](CCC(=O)O)C(=O)N[C@H](CCCCN)C(N)=O)NC1=O` [compound 72] (HELM PEPTIDE1{[meR].S.D.T.L.[Pen].[dF].E.[dK].[am]}|CHEM1{[O=C(c1ccccc1C[*:2])[*:1]]}$PEPTIDE1,CHEM1,1:R1-1:R1|PEPTIDE1,CHEM1,6:R3-1:R2$$$V2.0), the IC50 in data set [1] is less than 25 nM. For the same molecule, the half-life at 22 μM in data set [2] is more than 3 h.
With `CC(C)C[C@@H]1NC(=O)[C@H]([C@@H](C)O)NC(=O)[C@H](CC(=O)O)NC(=O)[C@H](CO)NC(=O)[C@H](CCCNC(=N)N)N(C)C(=O)c2ccccc2CSC(C)(C)[C@@H](C(=O)N[C@@H](Cc2ccccc2)C(=O)N[C@@H](CCC(=O)O)CC(=O)N[C@H](CCCCN)C(N)=O)NC1=O` [compound 73] (HELM PEPTIDE1{[meR].S.D.T.L.[Pen].F.[O=C(O)CC[C@@H](CC(=O)[*:2])N[*:1]].[dK].[am]}|CHEM1{[O=C(c1ccccc1C[*:2])[*:1]]}$PEPTIDE1,CHEM1,1:R1-1:R1|PEPTIDE1,CHEM1,6:R3-1:R2$$$V2.0), the IC50 in data set [1] is less than 25 nM. Also, the half-life at 22 μM in data set [2] was more than 3 h.
For `CC(C)C[C@@H]1NC(=O)[C@H]([C@@H](C)O)NC(=O)[C@H](CC(=O)O)NC(=O)[C@H](CO)NC(=O)[C@H](CCCNC(=N)N)N(C)C(=O)c2ccccc2CSC(C)(C)[C@@H](C(=O)N[C@@H](Cc2ccc(O)cc2)C(=O)N[C@@H](CCC(=O)O)CC(=O)N[C@H](CCCCN)C(N)=O)NC1=O` [compound 74] (HELM PEPTIDE1{[meR].S.D.T.L.[Pen].Y.[O=C(O)CC[C@@H](CC(=O)[*:2])N[*:1]].[dK].[am]}|CHEM1{[O=C(c1ccccc1C[*:2])[*:1]]}$PEPTIDE1,CHEM1,1:R1-1:R1|PEPTIDE1,CHEM1,6:R3-1:R2$$$V2.0) the same measures were less than 25 nM and more than 3 h.
For `CC(C)C[C@@H]1NC(=O)[C@H]([C@@H](C)O)NC(=O)[C@H](CC(=O)O)NC(=O)[C@H](CO)NC(=O)[C@H](CCCNC(=N)N)N(C)C(=O)c2ccccc2CSC(C)(C)[C@@H](C(=O)N[C@@H](Cc2ccc3ccccc3c2)C(=O)N[C@H](CCC(=O)O)C(=O)N[C@H](CCCCN)C(N)=O)NC1=O` [compound 75] (HELM PEPTIDE1{[meR].S.D.T.L.[Pen].[O=C([C@H](Cc1ccc2ccccc2c1)N[*:1])[*:2]].[dE].[dK].[am]}|CHEM1{[O=C(c1ccccc1C[*:2])[*:1]]}$PEPTIDE1,CHEM1,1:R1-1:R1|PEPTIDE1,CHEM1,6:R3-1:R2$$$V2.0) the same measures were less than 25 nM and more than 3 h.
